The values below come from article PMC8231556, “Inhibiting Endothelial Cell Function in Normal and Tumor Angiogenesis Using BMP Type I Receptor Macrocyclic Kinase Inhibitors” (Cancers, 2021).

Experiment in all cases: radiometric kinase profiling (33 PanQinase)
Common to all, as to format: biochemical

Test [1] concerns the target T1, CAMK1D (Homo sapiens, UniProt Q8IU85).
T1 construct: purchased Proqinase, Germany
Particulars: read-out: Inhibitory effect (%) CAMK1D. How it is done:
(§1) The kinase inhibition profile of the compounds was determined by testing 96 protein kinases’ activity using a radiometric protein kinase assay (33 PanQinase® Activity Assay, Proqinase, Germany). In brief, 10 µL of non-radioactive ATP solution (in H2O), 25 µL of assay buffer/[γ-33 P]-ATP mixture, 5 µL of 0.1 μM the tested compound in 10% DMSO and 10 µL of enzyme/substrate were mixed in 96-well FlashPlatesTM (Perkin Elmer, Boston, MA, USA). The reaction was conducted at 30 °C for 60 min. To stop the reaction, 50 µL of 2% (v/v) H3PO4 was added into the protein kinase reaction cocktails. After which, with 200 µL 0.9% (w/v) NaCl twice, the incorporation of ^33 Pi (counting of “cpm”) was determined with a microplate scintillation counter (Wallac Microbeta, Boston, MA, USA). All protein kinase assays were performed using a BeckmanCoulter Biomek 2000/SL robotic system (Brea, CA, USA). The residual activity (in %) for each compound was normalized to 100% enzyme activity (untreated control) and background (negative control).

In test [2] the target is T2, PTK2 (Homo sapiens, UniProt Q05397).
T2 construct: purchased ProQinase (33PanQinase Activity Assay)
Particulars: read-out: Inhibitory effect (%) PTK2. How it is done:
as §1

Test [3] addresses T3, CAMK2D (Homo sapiens, UniProt Q13557).
T3 construct: purchased Proqinase, Germany
To be noted: read-out: Inhibitory effect (%) CAMK2D. How it is done: as §1

Test [4] deals with T4, PRKD2 (Homo sapiens, UniProt Q9BZL6).
T4 construct: purchased ProQinase (33PanQinase Activity Assay)
T4 sequence (Q9BZL6 1-878): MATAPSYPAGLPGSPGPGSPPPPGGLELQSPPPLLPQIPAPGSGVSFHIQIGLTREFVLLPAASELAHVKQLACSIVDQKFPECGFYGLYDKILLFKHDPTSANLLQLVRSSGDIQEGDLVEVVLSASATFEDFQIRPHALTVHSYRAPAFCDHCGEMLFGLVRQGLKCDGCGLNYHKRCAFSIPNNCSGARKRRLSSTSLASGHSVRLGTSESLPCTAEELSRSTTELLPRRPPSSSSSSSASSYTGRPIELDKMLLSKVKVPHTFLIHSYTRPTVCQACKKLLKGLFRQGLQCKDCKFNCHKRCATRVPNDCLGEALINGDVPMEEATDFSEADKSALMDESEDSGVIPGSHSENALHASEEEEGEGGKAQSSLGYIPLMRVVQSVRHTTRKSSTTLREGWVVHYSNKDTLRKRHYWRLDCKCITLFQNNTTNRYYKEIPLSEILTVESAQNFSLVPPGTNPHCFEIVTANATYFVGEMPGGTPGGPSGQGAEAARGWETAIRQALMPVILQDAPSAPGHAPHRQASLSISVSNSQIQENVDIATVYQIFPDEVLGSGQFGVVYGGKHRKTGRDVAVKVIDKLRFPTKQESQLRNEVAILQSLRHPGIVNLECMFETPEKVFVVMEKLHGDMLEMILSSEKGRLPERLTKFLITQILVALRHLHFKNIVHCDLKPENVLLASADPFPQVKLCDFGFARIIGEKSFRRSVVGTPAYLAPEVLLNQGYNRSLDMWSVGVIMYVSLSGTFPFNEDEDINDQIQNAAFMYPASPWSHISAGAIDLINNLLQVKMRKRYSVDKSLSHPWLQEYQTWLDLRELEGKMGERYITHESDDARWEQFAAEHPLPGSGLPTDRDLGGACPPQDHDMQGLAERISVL
Particulars: read-out: Inhibitory effect (%) PRKD2. Here is the method:
as §1

Test [5] concerns the target T5, RPS6KA1 (Homo sapiens, UniProt Q15418).
T5 construct: purchased ProQinase (33PanQinase Activity Assay)
Particulars: read-out: Inhibitory effect (%) RPS6KA1. Here is the method: as §1

For test [6], the target named is T6, MAPK3 (Homo sapiens, UniProt P27361).
T6 construct: purchased ProQinase (33PanQinase Activity Assay)
Particulars: read-out: Inhibitory effect (%) MAPK3. Here is the method:
as §1

The target in test [7] is T7, EPHB4 (Homo sapiens, UniProt P54760).
T7 construct: purchased ProQinase (33PanQinase Activity Assay)
T7 sequence (P54760 16-987): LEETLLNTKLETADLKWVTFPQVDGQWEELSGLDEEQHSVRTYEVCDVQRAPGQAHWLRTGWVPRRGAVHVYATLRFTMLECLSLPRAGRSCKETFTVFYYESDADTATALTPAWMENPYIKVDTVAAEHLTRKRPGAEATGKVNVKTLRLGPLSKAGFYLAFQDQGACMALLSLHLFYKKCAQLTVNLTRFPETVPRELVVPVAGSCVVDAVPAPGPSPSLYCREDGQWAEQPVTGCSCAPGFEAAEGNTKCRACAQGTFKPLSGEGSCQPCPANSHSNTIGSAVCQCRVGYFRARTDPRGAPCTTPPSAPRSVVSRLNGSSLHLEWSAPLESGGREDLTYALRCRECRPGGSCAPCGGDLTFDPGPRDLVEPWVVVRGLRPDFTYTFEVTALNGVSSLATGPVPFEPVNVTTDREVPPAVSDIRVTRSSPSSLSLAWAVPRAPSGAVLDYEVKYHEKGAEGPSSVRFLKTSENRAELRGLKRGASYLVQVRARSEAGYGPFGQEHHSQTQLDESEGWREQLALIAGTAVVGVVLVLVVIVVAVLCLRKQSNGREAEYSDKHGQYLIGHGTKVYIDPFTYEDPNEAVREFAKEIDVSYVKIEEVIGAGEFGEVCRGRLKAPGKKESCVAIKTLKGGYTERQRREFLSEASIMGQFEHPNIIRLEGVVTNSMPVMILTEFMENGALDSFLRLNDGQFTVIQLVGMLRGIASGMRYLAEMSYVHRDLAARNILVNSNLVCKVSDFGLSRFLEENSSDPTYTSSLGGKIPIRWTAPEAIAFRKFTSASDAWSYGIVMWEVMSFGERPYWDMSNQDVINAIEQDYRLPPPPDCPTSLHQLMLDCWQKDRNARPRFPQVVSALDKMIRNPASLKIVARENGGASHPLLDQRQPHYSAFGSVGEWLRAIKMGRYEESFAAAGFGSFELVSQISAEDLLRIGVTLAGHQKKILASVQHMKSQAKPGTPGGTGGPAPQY
To be noted: read-out: Inhibitory effect (%) EPHB4. How it is done: as §1

Molecules are shown by their SMILES.

T2 sequence (Q05397 whole entry): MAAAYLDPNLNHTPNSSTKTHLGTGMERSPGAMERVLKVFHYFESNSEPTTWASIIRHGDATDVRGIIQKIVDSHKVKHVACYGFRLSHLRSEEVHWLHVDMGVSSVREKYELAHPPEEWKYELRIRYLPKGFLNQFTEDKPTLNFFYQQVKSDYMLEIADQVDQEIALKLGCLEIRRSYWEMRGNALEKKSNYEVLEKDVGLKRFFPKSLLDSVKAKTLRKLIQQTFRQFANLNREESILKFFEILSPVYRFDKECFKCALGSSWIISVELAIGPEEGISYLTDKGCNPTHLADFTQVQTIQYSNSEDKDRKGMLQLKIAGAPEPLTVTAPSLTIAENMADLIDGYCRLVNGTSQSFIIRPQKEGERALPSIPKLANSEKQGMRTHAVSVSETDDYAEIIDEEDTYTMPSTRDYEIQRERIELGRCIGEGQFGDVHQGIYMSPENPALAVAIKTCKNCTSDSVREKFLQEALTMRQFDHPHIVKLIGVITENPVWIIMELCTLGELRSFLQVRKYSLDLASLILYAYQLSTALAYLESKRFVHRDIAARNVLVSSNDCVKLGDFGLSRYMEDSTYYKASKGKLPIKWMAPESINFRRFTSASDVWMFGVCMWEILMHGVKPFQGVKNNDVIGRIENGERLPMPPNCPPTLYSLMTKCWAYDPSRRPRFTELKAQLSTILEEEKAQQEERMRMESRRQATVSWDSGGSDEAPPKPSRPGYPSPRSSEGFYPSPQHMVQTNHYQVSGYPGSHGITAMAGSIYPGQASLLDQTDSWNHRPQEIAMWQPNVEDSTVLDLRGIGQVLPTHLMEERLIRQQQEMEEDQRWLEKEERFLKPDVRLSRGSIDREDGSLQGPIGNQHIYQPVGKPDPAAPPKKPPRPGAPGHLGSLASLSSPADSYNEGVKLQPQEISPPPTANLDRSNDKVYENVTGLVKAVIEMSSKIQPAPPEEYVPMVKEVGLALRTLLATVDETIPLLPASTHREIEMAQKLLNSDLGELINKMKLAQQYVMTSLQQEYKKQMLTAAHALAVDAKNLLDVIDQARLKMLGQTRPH
T1 sequence (Q8IU85 whole entry): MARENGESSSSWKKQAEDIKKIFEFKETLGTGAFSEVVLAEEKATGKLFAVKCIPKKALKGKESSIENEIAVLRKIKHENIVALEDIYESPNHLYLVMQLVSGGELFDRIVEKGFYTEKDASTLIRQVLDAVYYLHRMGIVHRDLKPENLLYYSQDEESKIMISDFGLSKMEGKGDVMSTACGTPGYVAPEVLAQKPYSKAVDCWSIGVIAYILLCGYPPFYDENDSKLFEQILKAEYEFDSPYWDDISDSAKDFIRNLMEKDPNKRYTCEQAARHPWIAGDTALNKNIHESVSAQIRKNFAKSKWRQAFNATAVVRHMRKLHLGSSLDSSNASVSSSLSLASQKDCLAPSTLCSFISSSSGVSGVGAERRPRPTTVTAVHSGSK
T5 sequence (Q15418 whole entry): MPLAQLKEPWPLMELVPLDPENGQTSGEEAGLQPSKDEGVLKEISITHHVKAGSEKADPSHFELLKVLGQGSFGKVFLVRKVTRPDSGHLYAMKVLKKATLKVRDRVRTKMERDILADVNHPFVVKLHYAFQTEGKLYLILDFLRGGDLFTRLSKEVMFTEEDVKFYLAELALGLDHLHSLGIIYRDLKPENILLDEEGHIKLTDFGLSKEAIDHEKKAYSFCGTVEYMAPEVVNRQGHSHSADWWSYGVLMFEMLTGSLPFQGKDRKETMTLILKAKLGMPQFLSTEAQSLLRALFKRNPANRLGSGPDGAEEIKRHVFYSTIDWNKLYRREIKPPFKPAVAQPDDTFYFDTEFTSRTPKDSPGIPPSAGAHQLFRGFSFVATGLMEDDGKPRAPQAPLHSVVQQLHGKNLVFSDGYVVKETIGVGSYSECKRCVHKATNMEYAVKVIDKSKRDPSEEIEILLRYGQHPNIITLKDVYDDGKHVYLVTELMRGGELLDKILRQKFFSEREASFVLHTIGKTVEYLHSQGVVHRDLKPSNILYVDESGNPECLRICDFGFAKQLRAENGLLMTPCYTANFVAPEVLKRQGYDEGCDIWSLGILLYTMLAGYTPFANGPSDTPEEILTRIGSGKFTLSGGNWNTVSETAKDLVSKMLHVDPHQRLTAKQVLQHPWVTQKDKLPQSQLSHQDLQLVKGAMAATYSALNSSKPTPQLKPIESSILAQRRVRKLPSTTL
T3 sequence (Q13557 whole entry): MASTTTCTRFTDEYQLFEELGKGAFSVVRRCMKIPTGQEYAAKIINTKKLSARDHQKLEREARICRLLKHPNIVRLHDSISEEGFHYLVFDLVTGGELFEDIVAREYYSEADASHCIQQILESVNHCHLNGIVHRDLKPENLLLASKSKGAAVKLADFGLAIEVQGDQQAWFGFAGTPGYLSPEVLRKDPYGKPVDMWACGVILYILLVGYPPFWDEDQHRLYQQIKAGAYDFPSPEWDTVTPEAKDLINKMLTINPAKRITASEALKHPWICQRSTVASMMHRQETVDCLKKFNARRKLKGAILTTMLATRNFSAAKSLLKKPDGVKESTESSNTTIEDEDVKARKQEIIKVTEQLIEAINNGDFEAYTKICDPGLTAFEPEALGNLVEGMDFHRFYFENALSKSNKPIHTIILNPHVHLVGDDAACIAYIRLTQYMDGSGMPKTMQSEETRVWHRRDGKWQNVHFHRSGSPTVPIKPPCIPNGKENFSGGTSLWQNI
T6 sequence (P27361 whole entry): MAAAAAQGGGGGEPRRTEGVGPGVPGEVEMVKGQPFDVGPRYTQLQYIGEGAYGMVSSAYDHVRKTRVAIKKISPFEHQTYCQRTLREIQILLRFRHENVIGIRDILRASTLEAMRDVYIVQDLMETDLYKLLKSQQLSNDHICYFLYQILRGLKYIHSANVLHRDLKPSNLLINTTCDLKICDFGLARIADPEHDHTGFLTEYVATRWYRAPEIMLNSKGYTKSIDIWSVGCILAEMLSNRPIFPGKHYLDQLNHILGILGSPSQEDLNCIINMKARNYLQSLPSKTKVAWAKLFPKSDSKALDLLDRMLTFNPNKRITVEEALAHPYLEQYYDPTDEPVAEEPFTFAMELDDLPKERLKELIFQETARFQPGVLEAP

Consider `c1ccc2c(-c3cnn4cc(-c5ccc(N6CCNCC6)cc5)cnc34)ccnc2c1` [LDN-193189, reference compound], for which the inhibition at 0.1 µM was 4.59% in test [1]; 4.03% in test [2]; -13.3% in test [3]; -23.1% in test [4]; -10.4% in test [5]; -8.08% in test [6]. In addition, the inhibition at 0.1 µM in test [7] came to 4.39%.

Take `CN1CCc2cccc(c2)Nc2nccc(n2)N2CCCc3cc(ccc32)C1` [OD16]: the inhibition at 0.1 µM is -5.9% in test [1]; 17.1% in test [2]; -3.48% in test [3]; 32.2% in test [4]; 17% in test [5]; -13.8% in test [6]. In addition, the inhibition at 0.1 µM in test [7] was -36.6%.

For `CN1CCC(=O)NCCNc2ccn3ncc(c3n2)-c2cccc(c2)C1` [OD29], the inhibition at 0.1 µM in test [1] is -7.41%; in test [2], -0.22%; in test [3] it was 9.77%; in test [4] it was 5.45%; in test [5], 5.09%; in test [6], -7.55%. For the same compound, the inhibition at 0.1 µM in test [7] stood at 3.64%.
